This note sets out measurements from PMC6518372, “An enzymatically stable GIP/xenin hybrid peptide restores GIP sensitivity, enhances beta cell function and improves glucose homeostasis in high-fat-fed mice” (Diabetologia, 2016).

One data set addresses purified porcine DPP-4 (Sus scrofa, UniProt P22411). As to the kind of experiment: DPP-4 degradation / in vitro DPP-4 half-life. The conditions noted are these: 20 μg peptide, 5 mU purified DPP-4, up to 12 h, HPLC. As to the method:
Peptide (20 μg) DPP-4 degradation profiles (5 μl purified DPP-4, 5 mU; Sigma-Aldrich, UK) were assessed as described previously.
For calculation of experimental molecular masses, peptide samples (1 µg) were mixed with α-cyano-4-hydroxycinnamic acid (1 µg) and applied to a Voyager-DE BioSpectrometry Workstation and mass-to-charge (m/z) ratio verses peak intensity recorded by MALDI-TOF mass spectrometry. DPP-4 half-life was assessed by incubating peptides (37°C in 50 mmol/L TEA-HCl; pH 7.8) with 5 mU purified porcine DPP-4 for 0, 1, 2, 4, 8 and 12 h. Degradation profiles were obtained using rp-HPLC analysis and HPLC peak area data used to calculate percentage intact peptide remaining at each time point.

A further data set concerns lean control mice. Nature of the data set: Acute glucose-lowering and insulin-releasing effects in lean mice. The class given is in vivo, mouse. To be noted: 25 nmol/kg i.p. with glucose 18 mmol/kg, non-fasted lean mice. As to the method: Specific information on acute feeding, glucose homeostasis and insulin-secretory studies is given in ESM Methods. To assess the impact of GIP and neurotensin receptor activation on (DAla^2)GIP/xenin-8-Gln-induced glucose-lowering and insulin-secretory actions in mice, (DAla^2)GIP/xenin-8-Gln was administered by i.p. injection (25 nmol/kg body weight) in combination with glucose (18 mmol/kg) in the absence and presence of GIP(6-30)Cex-K^40[Pal] and SR142948A (both at 25 nmol/kg), and glucose and insulin were measured as described above. In a final series of experiments, test peptides (25 nmol/kg) or saline vehicle (0.9% wt/vol. NaCl) were injected 4 h before a glucose load (18 mmol/kg) in non-fasted mice and blood glucose and plasma insulin measured as above. […]
(§1) Animals Acute animal studies were conducted in male NIH Swiss mice (12-14 weeks old, Harlan Ltd, UK) maintained on a standard rodent maintenance diet (10% fat, 30% protein and 60% carbohydrate, Trouw Nutrition, UK). Prior to commencement of longer term studies, all animals, except lean controls that continued on rodent maintenance diet, were maintained on a high-fat diet (45% fat, 35% carbohydrate and 20% protein, Special Diet Services, UK) for 12 weeks. This diet […]
(§2) individually in an air-conditioned room at 22 ± 2 °C with a 12 h light:12 h dark cycle and had free access to food and water. Animal experiments were carried out in accordance with the UK Animals (Scientific Procedures) Act 1986.
(§3) Acute in vivo effects in lean mice For food intake studies, fasted (18 h) mice were given intraperitoneal (i.p) injections of peptides at a dose of 25, 100 or 250 nmol/kg bw. Mice were then allowed free access to normal chow for 180 mins and cumulative food intake measured. For glucose homeostasis and […]

Data set [1] relates to high-fat-fed mice. As to the kind of experiment: Glucose tolerance test after 21 day treatment. The class given is in vivo, mouse. The conditions noted are these: AUC 0–105 min after i.p. glucose 18 mmol/kg; 25 nmol/kg twice daily for 21 days; 18 h fasted high-fat-fed mice; mean ± SEM, 6–8 mice. As to the method: (§4) Twice-daily (09:30 and 17:30 hours) i.p. injections of saline vehicle, (DAla^2)GIP or (DAla^2)GIP/xenin-8-Gln hybrid (both at 25 nmol/kg) were administered for 21 days in high-fat-fed mice. Energy intake and body weight were monitored daily and non-fasting blood glucose and plasma insulin concentrations were assessed at 3 day intervals. On day 21, a non-fasted 24 h glucose profile was conducted. At the end of the treatment period, i.p. glucose tolerance (18 mmol/kg), biological response to GIP (18 mmol/kg glucose in combination with native GIP [25 nmol/kg], i.p.) and insulin sensitivity (15 U/kg; i.p.) tests were performed. Terminal analysis included measurement of total body fat and lean mass by dual-energy X-ray absorptiometry (DEXA) scanning (Piximus Densitometer; Inside Outside Sales, Fitchburg, WI, USA) and extraction of pancreatic tissue for analysis as detailed below.

The test system of data set [2] is high-fat-fed mice. As to the kind of experiment: Subchronic 21 day twice-daily treatment: energy intake, body weight, body composition, non-fasted glucose and insulin. To be noted: 25 nmol/kg i.p. twice daily. The class given is in vivo, mouse. The procedure: as §4
Blood samples were collected from the cut tip on the tail vein of conscious mice into chilled fluoride/heparin glucose micro-centrifuge tubes (Sarstedt, Numbrecht, Germany). Blood glucose was measured directly using a hand-held Ascencia Contour blood glucose meter (Bayer Healthcare, Newbury, UK). Plasma and pancreatic insulin was assayed by a modified dextran-coated charcoal radioimmunoassay.
In vitro insulin release studies Cells were seeded at a density of 150,000 cells/well in 24-well plates (Nunc, Roskilde, Denmark) and allowed to attach overnight at 37 °C. Culture medium was removed and cells were pre-incubated in Krebs–Ringer bicarbonate buffer (containing 0.5% (w/v) BSA, pH 7.4) supplemented with 1.1 mmol/l glucose for 40 min at 37 °C. Following the pre-incubation, experiments (n=8) were performed in presence of glucose (5.6 or 16.7 mmol/l) with a […]
incubations, aliquots of assay buffer were collected from each well and stored at -20 °C prior to […]
as §1, §2, §3

The next data set relates to BRIN-BD11 cells. Nature of the data set: Intracellular Ca2+ in BRIN-BD11 cells (FLIPR Calcium 5). The format is cell-based, rat. To be noted: peptide 10^−6 mol/l, 5.6 mmol/l glucose, 5 min, AUC 0–300 s. As to the method: BRIN-BD11 cells were used to assess the insulin-releasing activity of test peptides, as described previously. This hybrid cell line (ECACC 10033003) was originally generated in-house by electrofusion of a primary culture of New England Deaconess Hospital (NEDH) rat pancreatic islets with RINm5F (a cell line derived from an NEDH rat insulinoma), and has been mycoplasma eradicated. For details of experimental conditions please see ESM Methods. Insulin was measured by radioimmunoassay. We assessed the impact of GIP and neurotensin receptors on (DAla^2)GIP/xenin-8-Gln-induced insulin secretion in BRIN-BD11 cells. Cells were incubated in 5.6 mmol/l glucose with (DAla^2)GIP/xenin-8-Gln (10^−6 mol/l) alone or in combination with the GIP receptor antagonist GIP(6-30)Cex-K^40[Pal] [32] (where Pal is palmitate) or the neurotensin receptor antagonist SR142948A (Sigma, Poole, UK), and insulin secretion determined as described above. In addition, to determine mechanisms, intracellular Ca^2+ was also measured in BRIN-BD11 cells following treatment with test peptides (10^−6 mol/l), using a Flexstation scanning fluorometer (FLIPR Calcium 5 assay kit; Molecular Devices, Sunnyvale, CA, USA), as described previously.

[3] abbreviates: 21 days, high-fat-fed mice, vs high-fat-fed controls.

Sequence of purified porcine DPP-4 (P22411 whole entry): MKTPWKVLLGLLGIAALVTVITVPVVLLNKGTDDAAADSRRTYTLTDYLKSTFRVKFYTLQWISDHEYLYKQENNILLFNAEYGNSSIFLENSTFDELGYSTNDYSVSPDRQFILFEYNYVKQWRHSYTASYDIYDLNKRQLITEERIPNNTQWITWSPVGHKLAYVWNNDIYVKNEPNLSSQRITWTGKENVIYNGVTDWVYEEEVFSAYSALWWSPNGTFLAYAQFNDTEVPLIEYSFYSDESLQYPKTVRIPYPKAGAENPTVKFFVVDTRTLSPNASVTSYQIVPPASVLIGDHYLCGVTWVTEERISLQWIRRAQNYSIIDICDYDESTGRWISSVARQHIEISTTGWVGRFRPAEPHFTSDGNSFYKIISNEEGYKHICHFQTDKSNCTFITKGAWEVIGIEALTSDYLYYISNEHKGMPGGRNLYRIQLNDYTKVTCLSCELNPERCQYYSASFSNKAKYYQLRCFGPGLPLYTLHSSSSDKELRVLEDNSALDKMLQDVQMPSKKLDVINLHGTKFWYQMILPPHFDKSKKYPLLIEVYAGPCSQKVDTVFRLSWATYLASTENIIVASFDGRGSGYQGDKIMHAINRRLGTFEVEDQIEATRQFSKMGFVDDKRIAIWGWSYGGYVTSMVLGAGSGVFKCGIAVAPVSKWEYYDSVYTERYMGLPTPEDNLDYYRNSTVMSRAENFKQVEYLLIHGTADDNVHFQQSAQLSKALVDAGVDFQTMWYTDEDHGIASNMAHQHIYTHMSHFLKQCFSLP

For `CC[C@H](C)[C@H](NC(=O)[C@H](CO)NC(=O)[C@H](Cc1ccc(O)cc1)NC(=O)[C@H](CC(=O)O)NC(=O)[C@H](CO)NC(=O)[C@@H](NC(=O)[C@H](Cc1ccccc1)NC(=O)[C@@H](NC(=O)CNC(=O)[C@H](CCC(=O)O)NC(=O)[C@@H](C)NC(=O)[C@@H](N)Cc1ccc(O)cc1)[C@@H](C)O)[C@@H](C)CC)C(=O)N[C@@H](C)C(=O)N[C@@H](CCSC)C(=O)N[C@@H](CC(=O)O)C(=O)N[C@@H](CCCCN)C(=O)N[C@H](C(=O)N[C@@H](Cc1c[nH]cn1)C(=O)N[C@@H](CCC(N)=O)C(=O)N[C@@H](CCC(N)=O)C(=O)N[C@@H](CC(=O)O)C(=O)N[C@@H](Cc1ccccc1)C(=O)N[C@H](C(=O)N[C@@H](CC(N)=O)C(=O)N[C@@H](Cc1c[nH]c2ccccc12)C(=O)N[C@@H](CC(C)C)C(=O)N[C@@H](CC(C)C)C(=O)N[C@@H](C)C(=O)N[C@@H](CCC(N)=O)C(=O)N[C@@H](CCCCN)C(=O)NCC(=O)N[C@@H](CCCCN)C(=O)N[C@@H](CCCCN)C(=O)N[C@@H](CC(N)=O)C(=O)N[C@@H](CC(=O)O)C(=O)N[C@@H](Cc1c[nH]c2ccccc12)C(=O)N[C@@H](CCCCN)C(=O)N[C@@H](Cc1c[nH]cn1)C(=O)N[C@@H](CC(N)=O)C(=O)N[C@H](C(=O)N[C@H](C(=O)N[C@@H](CCC(N)=O)C(=O)O)[C@@H](C)O)[C@@H](C)CC)C(C)C)[C@@H](C)CC` [(DAla^2)GIP], the “Stability when incubated in the presence of DPP-4” value on purified porcine DPP-4 is “remained fully intact”. Moreover, the Blood glucose entry in the data set on lean control mice (15 min post injection) is on record as “significant (p < 0.05) reduction in blood glucose levels”. Further, in the data set with lean control mice (30 min post injection, vs glucose alone), the Blood glucose result is “significantly (p < 0.05) lowered blood glucose values”. In addition, the “Overall AUC blood glucose” value in the data set on lean control mice (vs glucose alone) is given as “significantly (p < 0.05) decreased overall AUC blood glucose values”. For the same molecule, in the data set on high-fat-fed mice [1], the “Glucose tolerance test: Blood glucose AUC” value worked out at 1714.7 ± 138.6 mmol·min/L and the “Glucose tolerance test: Plasma insulin AUC” value is listed as 11,253 ± 1590 pmol/l × min. Besides, in the data set with high-fat-fed mice [2] (setting [3]), the Body weight entry is reported as “no significant effect” and the Cumulative energy intake entry is given as “no significant effect”. Moreover, in the data set with high-fat-fed mice [2] (day 21, high-fat-fed mice), the “Non-fasting 24 h blood glucose profile” value is “also reduced, but not to the same extent”; the “Total body fat and lean mass (DEXA)” value is “unaltered”. Moreover, the Non-fasted plasma insulin result in the data set with high-fat-fed mice [2] (day 21, high-fat-fed mice, vs high-fat-fed controls) is on record as “reduced plasma insulin levels compared with high-fat-fed controls on day 21 but the difference did not reach statistical significance”. Besides, the “Non-fasting blood glucose compared with lean controls” value in the data set with high-fat-fed mice [2] (high-fat-fed mice, from day 12 onwards) is “not significantly different from lean controls”. Also, the “Effect on intracellular Ca^2+ concentrations” value in the data set with BRIN-BD11 cells is on record as “Neither, (DAla^2)GIP, xenin-8-Gln nor (DAla^2)GIP/xenin-8-Gln had any effect”.
